In paper PMC10762035, “Molecular basis of human trace amine-associated receptor 1 activation” (Nature Communications, 2024):
Changes are numbered by the printed parent chain. Several values for one entry are separate records, joined by “and”; a condition that tells them apart may be missing. Identical values can stand only once.

Tests used:
Format in all cases: cell-based
[1] = target: T1, hTA1 I290Y (Homo sapiens, UniProt Q96RJ0, I290Y); assay: GloSensor cAMP accumulation assay, I290Y mutant; details: for Normalized Luminescence Counts for Concentration Response Curves: I120Y, log[Agonist], single replicates; for cAMP accumulation response, normalized (concentration-response source data, single replicate values): hTA1 I290Y (N=3), log[Compound];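 as to cAMP accumulation response, normalized (concentration-response source data, single replicate values): normalized to the maximum response of β-PEA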
T1 construct: expressed in transfected cells; host or cells: HEK293T
T1 sequence (Q96RJ0 1-339 I290Y): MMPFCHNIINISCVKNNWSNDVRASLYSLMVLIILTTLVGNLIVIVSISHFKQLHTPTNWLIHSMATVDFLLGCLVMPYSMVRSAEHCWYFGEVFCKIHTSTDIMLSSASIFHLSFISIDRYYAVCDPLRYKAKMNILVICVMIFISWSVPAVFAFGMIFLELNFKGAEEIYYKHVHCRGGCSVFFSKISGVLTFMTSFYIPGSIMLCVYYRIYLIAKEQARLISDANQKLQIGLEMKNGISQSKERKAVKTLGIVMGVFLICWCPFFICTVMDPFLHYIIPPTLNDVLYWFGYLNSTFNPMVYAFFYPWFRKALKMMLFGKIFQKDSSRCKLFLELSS

[2] = target: T2, hTA1 F195T (Homo sapiens, UniProt Q96RJ0, F195T); assay: GloSensor cAMP accumulation assay, F195T mutant;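 also: cells transiently co-expressing HA-FLAG-tagged hTA1 and the GloSensor cAMP biosensor, luminescence read 30 min after agonist addition at room temperature, concentration-response fitted by nonlinear regression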
T2 construct: expressed in transfected cells; host or cells: HEK293T
T2 sequence (Q96RJ0 1-339 F195T): T1 sequence (Q96RJ0 1-339 I290Y) with F195T, Y290I

[3] = target: T3, hTA1 T271N (Homo sapiens, UniProt Q96RJ0, T271N); assay: GloSensor cAMP accumulation assay, T271N mutant
T3 construct: expressed in transfected cells; host or cells: HEK293T
T3 sequence (Q96RJ0 1-339 T271N): T1 sequence (Q96RJ0 1-339 I290Y) with T271N, Y290I

In the case of `NCCc1ccccc1` [β-PEA, β-phenethylamine], the “Normalized Luminescence Counts for Concentration Response Curves” value (from here on “Normalized Luminescence Counts”) ([1]; M -5) is reported as 106.77 and 91.3809 and 125.546 and 108.456 and 111.021 and 107.357 and 101.946 and 94.0497 and 113.225, the “Normalized Luminescence Counts” value ([1]; M -6) is reported as 87.3796 and 52.2914 and 77.8381 and 75.4765 and 68.8807 and 65.9492 and 71.4902 and 68.1063 and 59.0825 and the “Normalized Luminescence Counts” value ([1]; M -7) is reported as 31.0537 and 19.6655 and 31.3615 and 25.6411 and 22.3431 and 26.3739 and 25.2433 and 15.0915 and 12.8355. For the same compound, the “Normalized Luminescence Counts” value ([1]; M -8) was 5.199 (2×) and 2.121 and 24.1753 and 3.655 and 1.823 and 1.556 and -1.828 and -0.7002, the “Normalized Luminescence Counts” value ([1]; M -9) was -0.341 (2×) and -2.496 and 2.189 and -2.575 and -4.773 and 0.4278 and -1.828 and -2.956 and the “Normalized Luminescence Counts” value ([1]; M -10) was -0.0332 (2×) and -1.88 and -5.873 and -4.407 and -4.773 and 2.684 and -1.828 and -0.7002. The “Normalized Luminescence Counts” value ([1]; M -11) was 0.5824 (2×) and -1.264 and -5.506 and -5.14 and -3.674 and -1.828 (3×), the “Normalized Luminescence Counts” value ([1]; M -12) was 1.506 and -1.88 and -0.341 and -3.674 and -4.773 and 8.4185 and 1.556 (2×) and 2.684 and the “Span ± SEM (Emax normalized to β-PEA)” value ([1]; I290Y) was 100 ± 3.64. For the same compound, the “pEC50 ± SEM” value ([1]; I290Y) was 6.43 ± 0.07, the “ΔEmax values (each mutant value - WT average)” value ([1]; I290Y minus WT average) was 0 and the “ΔpEC50 values (each mutant value - WT average), Mean” value ([1]; I290Y minus WT average) was -0.6326 and -0.5624 and -0.7969. The EC50 ([1]; I290Y, read-out: EC50) was 372 nM, the “pEC50 values, Mean” value ([1]; I290Y, single experiments (3 replicates each)) was 6.461 and 6.531 and 6.297 and the “Emax values, Mean” value ([1]; I290Y, single experiments (3 replicates each), β-PEA = 100) was 100. The “cAMP accumulation response, normalized (concentration-response source data, single replicate values)” value (“cAMP accumulation response, normalized” for short) ([1]; M = -5) was 106.77 and 91.3809 and 125.546 and 108.456 and 111.021 and 107.357 and 101.946 and 94.0497 and 113.225, the “cAMP accumulation response, normalized” value ([1]; M = -5.522) was 77.8381 and 72.2978 and 82.1471 and 73.6443 and 85.0039 and 85.3703 and 81.642 and 86.1539 and 57.9545 and the “cAMP accumulation response, normalized” value ([1]; M = -6) was 87.3796 and 52.2914 and 77.8381 and 75.4765 and 68.8807 and 65.9492 and 71.4902 and 68.1063 and 59.0825. The “cAMP accumulation response, normalized” value ([1]; M = -6.522) was 54.4459 and 35.6706 and 50.4446 and 60.0862 and 56.7882 and 48.7266 and 47.8027 and 37.651 (2×), the “cAMP accumulation response, normalized” value ([1]; M = -7) was 31.0537 and 19.6655 and 31.3615 and 25.6411 and 22.3431 and 26.3739 and 25.2433 and 15.0915 and 12.8355 and the “cAMP accumulation response, normalized” value ([1]; M = -7.522) was 12.5863 and 7.662 and 9.508 and 11.7164 and 13.1822 and 20.5109 and 7.196 and 4.9397 and 3.812. The “cAMP accumulation response, normalized” value ([1]; M = -8) was 5.199 (2×) and 2.121 and 24.1753 and 3.655 and 1.823 and 1.556 and -1.828 and -0.7002, the “cAMP accumulation response, normalized” value ([1]; M = -8.522) was 0.8902 and -1.264 and -0.0332 and -1.109 and -1.842 and -4.04 and 0.4278 and -2.956 and -0.7002 and the “cAMP accumulation response, normalized” value ([1]; M = -9) was -0.341 (2×) and -2.496 and 2.189 and -2.575 and -4.773 and 0.4278 and -1.828 and -2.956. For the same compound, the “cAMP accumulation response, normalized” value ([1]; M = -9.522) was -0.9566 and -2.803 and -1.264 and -1.109 and -0.7424 and -1.475 and 0.4278 and -4.0841 and -0.7002, the “cAMP accumulation response, normalized” value ([1]; M = -10) was -0.0332 (2×) and -1.88 and -5.873 and -4.407 and -4.773 and 2.684 and -1.828 and -0.7002 and the “cAMP accumulation response, normalized” value ([1]; M = -10.522) was -0.6488. For the same compound, the “increase in potency vs wild type” value ([2]; F195T) was ~ 3.5 fold, the “ΔpEC50 values (each mutant value - WT average), Mean” value ([2]; F195T mutant minus WT average, Figure 5B) was 0.6087 and 0.4606 and the “pEC50 values, Mean” value ([2]; F195T mutant, Figure 5B, each row one independent experiment (3 replicates)) was 7.7022 and 7.554. For the same compound, the “Emax values, Mean” value ([2]; F195T mutant, Figure 5B, β-PEA = 100, each row one independent experiment (3 replicates)) was 100, the “Span ± SEM (Emax normalized to β-PEA)” value ([2]; F195T, n=2) was 100 and the “pEC50 ± SEM” value ([2]; F195T, n=2) was 7.63 ± 0.07. The EC50 ([2]; F195T, n=2, read-out: EC50) was 23.5 nM, the “pEC50 values, Mean” value ([3]; T271N mutant, Figure 5B, each row one independent experiment (3 replicates)) was 6.643 and 6.211 and the “Emax values, Mean” value ([3]; T271N mutant, Figure 5B, β-PEA = 100, each row one independent experiment (3 replicates)) was 100. The “Normalized Luminescence Counts” value ([3]; T271N, log[Agonist], M -7, single replicates) was 26.2249 and 22.04 and 25.7454 and 13.723 and 18.7522 and 17.914.
